The test system of this assay is mice. Nature of the assay: Neuropharmacological Assay (SmartCube). The following applies: for minimal effective dose: Mus musculus, read-out: POTENCY (minimal effective dose, MED); for AD: ADHD (SmartCube probability) / AG: analgesic (SmartCube probability) / AX: anxiolytic (SmartCube probability) / CE: cognitive enhancer (SmartCube probability) / DP: anti-depressant (SmartCube probability) / MS: mood stabilizer (SmartCube probability) / PS: anti-psychotic (SmartCube probability) / SD: sedative hypnotic (SmartCube probability) / UN: uncharacterized CNS activity (SmartCube probability): mice, i.p. 15 min before test, most efficacious dose(s) of 3 doses. It counts as in vivo. The procedure, abridged: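 Compounds in NMP/PEG/propylene glycol given i.p. 15 min before automated video-based behavioral testing, at 3 doses; behavioral signature compared with a reference-compound database to give probability per drug class, reported at most efficacious dose. MED = dose (mpk) giving ≥50% total activity; doses typically 0.3–30 mpk.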

Where [1] appears, read: MED = dose having 50% or more total activity in SmartCube.

As a reminder, the minimal effective dose is the smallest amount tested that counted as effective. As for `CNC[C@@H]1OCCc2c(O)cc3c(c21)OCO3` (single isomer, unassigned) [Example 103], the “AD: ADHD (SmartCube probability)” value was “+ (LOQ≤ + <5%)”, the “AG: analgesic (SmartCube probability)” value is “+ (LOQ≤ + <5%)”, the “AX: anxiolytic (SmartCube probability)” value is “+ (LOQ≤ + <5%)” and the “CE: cognitive enhancer (SmartCube probability)” value (from here on “CE: cognitive enhancer”) is recorded as “+ (LOQ≤ + <5%)”. Moreover, the “DP: anti-depressant (SmartCube probability)” value (“DP: anti-depressant” for short) is listed as “+ (LOQ≤ + <5%)”, the “MS: mood stabilizer (SmartCube probability)” value (from here on “MS: mood stabilizer”) was “+ (LOQ≤ + <5%)”, the “PS: anti-psychotic (SmartCube probability)” value (from here on “PS: anti-psychotic”) was “+ (LOQ≤ + <5%)” and the “SD: sedative hypnotic (SmartCube probability)” value (“SD: sedative hypnotic” for short) is “+ (LOQ≤ + <5%)”. For the same compound, the “UN: uncharacterized CNS activity (SmartCube probability)” value (“UN: uncharacterized CNS activity” below) is “+ (LOQ≤ + <5%)”. Besides, the minimal effective dose under setting [1] is more than 30 mg/kg.
With `CCNC[C@@H]1OCCc2cccc(F)c21` [Example 87, (R)-N-((8-fluoroisochroman-1-yl)methyl)ethanamine], the “AD: ADHD (SmartCube probability)” value is listed as “+ (LOQ≤ + <5%)”, the “AG: analgesic (SmartCube probability)” value is given as “++ (5%≤ ++ <25%)”, the “AX: anxiolytic (SmartCube probability)” value is reported as “++ (5%≤ ++ <25%)” and the “CE: cognitive enhancer” value was “+ (LOQ≤ + <5%)”. Moreover, the “DP: anti-depressant” value is recorded as “++ (5%≤ ++ <25%)”, the “MS: mood stabilizer” value is recorded as “+ (LOQ≤ + <5%)”, the “PS: anti-psychotic” value is on record as “++ (5%≤ ++ <25%)” and the “SD: sedative hypnotic” value was “+ (LOQ≤ + <5%)”. The “UN: uncharacterized CNS activity” value is recorded as “++++ (50%≤ ++++)”. For the same compound, the minimal effective dose under setting [1] was less than 3 mg/kg.
Consider `CNC[C@@H]1OCCc2ccc(Cl)cc21` [Example 65, (R)-1-(7-chloroisochroman-1-yl)-N-methylmethanamine], for which the “AD: ADHD (SmartCube probability)” value was “+ (LOQ≤ + <5%)”, the “AG: analgesic (SmartCube probability)” value is “++ (5%≤ ++ <25%)”, the “AX: anxiolytic (SmartCube probability)” value was “++ (5%≤ ++ <25%)” and the “CE: cognitive enhancer” value is recorded as “+ (LOQ≤ + <5%)”. Moreover, the “DP: anti-depressant” value is given as “++ (5%≤ ++ <25%)”, the “MS: mood stabilizer” value was “+ (LOQ≤ + <5%)”, the “PS: anti-psychotic” value was “++ (5%≤ ++ <25%)” and the “SD: sedative hypnotic” value is reported as “++ (5%≤ ++ <25%)”. The “UN: uncharacterized CNS activity” value is listed as “++++ (50%≤ ++++)”. Besides, under setting [1], the “POTENCY (minimal effective dose, MED)” value is “A-B”.
On to `CNC[C@H]1OCCc2c(C#N)cccc21` [Example 46, (S)-1-((methylamino)methyl)isochromane-5-carbonitrile], for which the “AD: ADHD (SmartCube probability)” value is listed as “+ (LOQ≤ + <5%)”, the “AG: analgesic (SmartCube probability)” value was “+ (LOQ≤ + <5%)”, the “AX: anxiolytic (SmartCube probability)” value was “++ (5%≤ ++ <25%)” and the “CE: cognitive enhancer” value is listed as “++ (5%≤ ++ <25%)”. Moreover, the “DP: anti-depressant” value is “++ (5%≤ ++ <25%)”, the “MS: mood stabilizer” value is reported as “+ (LOQ≤ + <5%)”, the “PS: anti-psychotic” value was “++ (5%≤ ++ <25%)” and the “SD: sedative hypnotic” value is “++ (5%≤ ++ <25%)”. In addition, the “UN: uncharacterized CNS activity” value was “+++ (25%≤ +++ <50%)”. Under setting [1], the minimal effective dose lay within 3 to 10 mg/kg.
Take `CNC[C@@H]1OCCc2ccc(F)cc21` [Example 15, (R)-1-(7-fluoroisochroman-1-yl)-N-methylmethanamine]: the “AD: ADHD (SmartCube probability)” value is recorded as “+ (LOQ≤ + <5%)”, the “AG: analgesic (SmartCube probability)” value was “++ (5%≤ ++ <25%)”, the “AX: anxiolytic (SmartCube probability)” value is reported as “++ (5%≤ ++ <25%)” and the “CE: cognitive enhancer” value is “++ (5%≤ ++ <25%)”. In addition, the “DP: anti-depressant” value is on record as “++ (5%≤ ++ <25%)”, the “MS: mood stabilizer” value was “++ (5%≤ ++ <25%)”, the “PS: anti-psychotic” value is listed as “+++ (25%≤ +++ <50%)” and the “SD: sedative hypnotic” value is “++ (5%≤ ++ <25%)”. Further, the “UN: uncharacterized CNS activity” value is on record as “+++ (25%≤ +++ <50%)”. For the same compound, the minimal effective dose under setting [1] is less than 3 mg/kg.

The record behind these values is US10196403B2, “Compounds and compositions and uses thereof” (Sunovion Pharmaceuticals Inc., priority 2016, dated 2019).
